Laboratory results from patent publication US20110293545A1, “Dolichos Biflorus Extract For Use In Cosmetic Skin Treatment” (Cognis IP Management GmbH, priority 2009, published 2011).

What was measured:
Format in all cases: cell-based
[1] = tested on: collagen I; experiment: Stimulation of collagen I production (ELISA of released collagen peptides, Bradford cell proteins); settings: dose 20 μg/ml; 72 hours; human dermal fibroblasts
Method: The purpose of this assay was the evaluation of the potential of Dolichos biflorus seed extract to increase the level of collagen I. Human dermal fibroblasts (from skin of aesthetic surgery) were cultivated in growth medium (DMEM Invitrogen N° 41965-039 with FCS at 10% (v/v)) for 24 hours at 37° C. […] The amount of cellular proteins was determined on cell homogenate (in a solution of NaOH 0.1 N) by the Bradford's method. The quantity of synthesized type I collagen was determined by measuring the amount of released collagen peptides in cell culture medium by an ELISA method (kit […]° from Osteomedical). They are expressed in % protein referring to the control (=standard medium with cells).

[2] = tested on: COL5A1; experiment: qRT-PCR of collagen V encoding gene COL5A1 in human dermal fibroblasts; settings: 10 ng/ml, with carrier protein; 24 h incubation; relative to EF1α
Method: (§1) This test was performed to evaluate the stimulation efficacy of a Dolichos biflorus extract according to example 3 on the expression of collagen V encoding genes in human fibroblasts. As 2 genes are responsible of the production of collagen V, namely the genes COL5A1 and COL5A2, both gene expressions were analysed.
(§2) Human dermal fibroblasts (obtained from plastic surgery) were inoculated in standard DMEM medium of cell culture with 10% FCS (Invitrogen). When cell confluence was arisen, the substances to be tested were introduced in new DMEM without FCS. Fibroblasts were incubated during 24 h with the test substances, then total RNA was extracted using a commercial extraction kit (Nucleospin™ RNA II, Macherey-Nagel™, France). Quantification and quality control of total RNA were performed by measuring […] at 260 and 280 nm. […]
(§3) The reverse transcription step was performed with a reverse transcription (RT) kit (ThermoScript™ RT-PCR System, Invitrogen, France) using 0.1 μg of total RNA in a 20 μl final volume. The quantitative PCRs were performed on 2 μl of the RT mix with specific primers in a 20 μl final volume, according to the manufacturer's informations (LightCycler®480 SYBR Green I Master, Roche, France). […] Results, expressed as percentage RNA compared to the control, are the mean of three independent assays (table 3). […]

[3] = tested on: COL5A2; experiment: qRT-PCR of collagen V encoding gene COL5A2 in human dermal fibroblasts; settings: 10 ng/ml, with carrier protein; 24 h incubation; relative to EF1α
Method: as §1, §2, §3

| Compound | Cell proteins [1] | Released type I collagen [1] | RNA level of COL5A1 [2] | RNA level of COL5A2 [3] |
| --- | --- | --- | --- | --- |
| O=C1O[C@H]([C@@H](O)CO)C(O)=C1O [Vitamin C] | 77.3 % protein against control | 118.3 % protein against control | – | – |
| TGF-β1: growth factor, positive reference; strong transcription activator of collagen genes; added with a carrier protein | – | – | 567 %/control | 171 %/control |
